PubChem BioAssay AID248 (DTP/NCI, 2004)
Values joined by “and” are separate entries in the source; they are usually repeats but may differ in a detail not shown here. Equal values may be shown once. Inconclusive results and toxic doses are left out. Rule as the data show it: active = T/C of 150% or more; inactive = T/C below 125%. Numbered stars: 1 amine (or outer) side, 2 acyl side, 3 side chain; on linkers, the order of the positions; unused ones are H or OH. Bridge positions count the residues as written; N and C are the ends. Square brackets hold non-standard residues; d marks the D form. Peptide text beside a SMILES is read from it. I, II: the chains in the order shown. Actinocin(9to1) = Cc1c2oc3c(C)ccc(C(=O)[*:1])c3nc-2c(C(=O)[*:2])c(N)c1=O; NMeV = CN[CH](C(=O)O)C(C)C; Sar = CNCC(=O)O

Test system: L1210 leukemia ip in BDF1 mice, survival T/C
Test: NCI In Vivo Anticancer Drug Screen. Data for tumor model L1210 Leukemia (intraperitoneal) in B6D2F1 (BDF1) mice
Details: endpoint: mean survival time, higher = longer survival
Outline: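 Ratio derived from survival: compound-dosed mice over vehicle-dosed mice, all bearing a transplantable tumor.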

[1] = dose: 100.0 mg/kg/injection, schedule: Q01DX001 (ip), vehicle: saline
[2] = dose: 200.0 mg/kg/injection, schedule: Q01DX001 (ip), vehicle: saline
[3] = dose: 400.0 mg/kg/injection, schedule: Q01DX001 (ip), vehicle: saline
[4] = dose: 50.0 mg/kg/injection, schedule: Q01DX009 (ip), vehicle: Klucel (hydroxypropylcellulose) (HPC)
[5] = dose: 100.0 mg/kg/injection, schedule: Q01DX009 (ip), vehicle: Klucel (hydroxypropylcellulose) (HPC)
[6] = dose: 200.0 mg/kg/injection, schedule: Q01DX009 (ip), vehicle: Klucel (hydroxypropylcellulose) (HPC)
[7] = dose: 100.0 mg/kg/injection, schedule: Q01DX009 (ip), vehicle: saline with Tween-80
[8] = dose: 100.0 mg/kg/injection, schedule: Q04DX003 (ip), vehicle: saline
[9] = dose: 200.0 mg/kg/injection, schedule: Q01DX009 (ip), vehicle: saline with Tween-80
[10] = dose: 200.0 mg/kg/injection, schedule: Q04DX003 (ip), vehicle: saline
[11] = dose: 400.0 mg/kg/injection, schedule: Q04DX003 (ip), vehicle: saline
[12] = dose: 400.0 mg/kg/injection, schedule: Q01DX009 (ip), vehicle: Klucel (hydroxypropylcellulose) (HPC)

Measured: T/C

Cc1ccc(OCC(=O)Nc2ccc(Cl)cc2)c(C)c1
inactive: dose: 100.0 mg/kg/injection, schedule: Q01DX001 (ip), vehicle: other 95 % of control | dose: 200.0 mg/kg/injection, schedule: Q01DX001 (ip), vehicle: other 98 % of control | dose: 400.0 mg/kg/injection, schedule: Q01DX001 (ip), vehicle: other 98 % of control

CC(=O)NCCCOc1ccc(N)cc1
inactive: [1] 96 % of control | [2] 102 % of control | [3] 105 % of control

O=c1oc2ccc([N+](=O)[O-])cc2o1
inactive: dose: 75.0 mg/kg/injection, schedule: Q01DX001 (ip), vehicle: acetone 108 % of control

NNC(=O)NC(=O)NN
inactive: dose: 9.61 mg/kg/injection, schedule: Q01DX Z (ip), vehicle: carboxymethylcellulose (CMC) 103 % of control | dose: 19.23 mg/kg/injection, schedule: Q01DX Z (ip), vehicle: carboxymethylcellulose (CMC) 90 % of control | dose: 38.45 mg/kg/injection, schedule: Q01DX Z (ip), vehicle: carboxymethylcellulose (CMC) 95 % of control | dose: 76.9 mg/kg/injection, schedule: Q01DX Z (ip), vehicle: carboxymethylcellulose (CMC) 116 % of control | [1] 103 % of control | [2] 108 % of control

C1=CC2OC3CCCCC3C2c2ccccc21 (stereo unspecified)
inactive: dose: 100.0 mg/kg/injection, schedule: Q01DX001 (ip), vehicle: carboxymethylcellulose (CMC) 95 % of control | dose: 200.0 mg/kg/injection, schedule: Q01DX001 (ip), vehicle: carboxymethylcellulose (CMC) 95 % of control | dose: 400.0 mg/kg/injection, schedule: Q01DX001 (ip), vehicle: carboxymethylcellulose (CMC) 98 % of control

Cc1nc(N)[nH]c(=O)c1CCCCc1ccccc1
inactive: [4] 98 % of control | [5] 102 % of control | [6] 95 % of control

CC(=NC1CC(C)CC(C)(C)C1)C1CC1 (stereo unspecified)
inactive: dose: 55.0 mg/kg/injection, schedule: Q01DX Z (ip), vehicle: methylcellulose (MC) 100 % of control | dose: 83.0 mg/kg/injection, schedule: Q01DX Z (ip), vehicle: methylcellulose (MC) 89 % of control | dose: 125.0 mg/kg/injection, schedule: Q01DX Z (ip), vehicle: methylcellulose (MC) 100 % of control

CC1=CC(=O)C(C(O)(C(F)(F)Cl)C(F)(F)Cl)C(C)(C)C1 (stereo unspecified) (tested in a mixture with another compound)
inactive: [7] 98 % of control | [8] 93 % of control | [9] 102 % of control | [10] 98 % of control | [11] 104 % of control

O=C(O)CCC1COc2ccccc2O1 (stereo unspecified)
inactive: dose: 50.0 mg/kg/injection, schedule: Q01DX001 (ip), vehicle: saline 100 % of control | [1] 108 % of control | [2] 114 % of control | [3] 100 % of control

Cc1ccc([N+](=O)[O-])cc1/C=C/C(=O)O
inactive: [8] 106 % of control | [10] 93 % of control | [11] 104 % of control

O=S(=O)(C(Br)Br)C(Br)c1ccccc1 (stereo unspecified)
inactive: [1] 93 % of control | [2] 101 % of control | [3] 87 % of control

COc1ccc(C(CC(=O)c2ccccc2)Sc2ccccc2N)cc1OC (stereo unspecified)
inactive: [4] 97 % of control | dose: 100.0 mg/kg/injection, schedule: Q01DX005 (ip), vehicle: Klucel (hydroxypropylcellulose) (HPC) 101 % of control | [5] 94 % of control | dose: 100.0 mg/kg/injection, schedule: Q04DX002 (ip), vehicle: saline with Tween-80 98 % of control | dose: 200.0 mg/kg/injection, schedule: Q01DX005 (ip), vehicle: Klucel (hydroxypropylcellulose) (HPC) 108 % of control | [6] 94 % of control | dose: 200.0 mg/kg/injection, schedule: Q04DX002 (ip), vehicle: saline with Tween-80 106 % of control | dose: 400.0 mg/kg/injection, schedule: Q04DX002 (ip), vehicle: saline with Tween-80 113 % of control

CN(C)c1ccc(C2=CC3CCCC(C2)N3C)cc1 (stereo unspecified)
inactive: dose: 12.5 mg/kg/injection, schedule: Q04DX003 (ip), vehicle: saline 100 % of control | dose: 25.0 mg/kg/injection, schedule: Q04DX003 (ip), vehicle: saline 97 % of control

Nc1ncnc2c1ncn2C1OC(COP(=O)(O)O)C(O)C1O (stereo unspecified)
inactive: dose: 9.4 mg/kg/injection, schedule: Q03HX016 (ip), vehicle: water 108 % of control | dose: 9.4 mg/kg/injection, schedule: Q03HX024 (ip), vehicle: water 104 % of control | dose: 18.8 mg/kg/injection, schedule: Q03HX016 (ip), vehicle: water 108 % of control | dose: 18.8 mg/kg/injection, schedule: Q03HX024 (ip), vehicle: water 106 % of control | dose: 37.5 mg/kg/injection, schedule: Q03HX016 (ip), vehicle: water 108 % of control | dose: 37.5 mg/kg/injection, schedule: Q03HX024 (ip), vehicle: water 110 % of control | dose: 75.0 mg/kg/injection, schedule: Q03HX016 (ip), vehicle: water 116 % of control | dose: 75.0 mg/kg/injection, schedule: Q03HX024 (ip), vehicle: water 115 % of control | dose: 100.0 mg/kg/injection, schedule: Q01DX005 (ip), vehicle: saline 98 % of control | dose: 200.0 mg/kg/injection, schedule: Q01DX005 (ip), vehicle: saline 98 % of control

CS(=O)(=O)OCCCN(CCCOS(C)(=O)=O)c1ccc(C=Nc2ccc(-c3csc(COc4ccc(Br)cc4)n3)cc2)cc1
inactive: [7] 95 % of control | [9] 95 % of control

COc1ccccc1C(=O)NC(=S)Nc1ccc(Cl)c(Cl)c1
inactive: [5] 96 % of control and 87 % of control | dose: 100.0 mg/kg/injection, schedule: Q04DX002 (ip), vehicle: Klucel (hydroxypropylcellulose) (HPC) 95 % of control and 88 % of control | dose: 100.0 mg/kg/injection, schedule: Q04DX003 (ip), vehicle: Klucel (hydroxypropylcellulose) (HPC) 94 % of control | dose: 200.0 mg/kg/injection, schedule: Q01DX001 (ip), vehicle: Klucel (hydroxypropylcellulose) (HPC) 86 % of control | [6] 96 % of control and 106 % of control | dose: 200.0 mg/kg/injection, schedule: Q04DX002 (ip), vehicle: Klucel (hydroxypropylcellulose) (HPC) 98 % of control and 91 % of control | dose: 200.0 mg/kg/injection, schedule: Q04DX003 (ip), vehicle: Klucel (hydroxypropylcellulose) (HPC) 92 % of control | dose: 400.0 mg/kg/injection, schedule: Q01DX001 (ip), vehicle: Klucel (hydroxypropylcellulose) (HPC) 107 % of control | [12] 102 % of control | dose: 400.0 mg/kg/injection, schedule: Q04DX002 (ip), vehicle: Klucel (hydroxypropylcellulose) (HPC) 98 % of control and 91 % of control | dose: 400.0 mg/kg/injection, schedule: Q04DX003 (ip), vehicle: Klucel (hydroxypropylcellulose) (HPC) 102 % of control

CN(C)c1ccc(/C=N/NC(=O)c2ccc(N)cc2)cc1
inactive: [5] 89 % of control | [6] 86 % of control | [12] 89 % of control

Cc1c2oc3c(C)ccc(C(=O)NC4C(=O)NC(C(C)C)C(=O)N5CCCC5C(=O)N(C)CC(=O)N(C)C(C(C)C)C(=O)OC4C)c3nc-2c(C(=O)NC2C(=O)NC(C(C)C)C(=O)N3CCCC3C(=O)N(C)CC(=O)N(C)C(C(C)C)C(=O)OC2C)c(N)c1=O (stereo unspecified) (I: TVP[Sar][NMeV] / II: TVP[Sar][NMeV]; ester I:1-I:C, II:1-II:C; linker I:N-II:N via Actinocin(9to1); configuration not given here)
inactive: dose: 0.05 mg/kg/injection, schedule: Q01DX009 (ip), vehicle: water 117 % of control | dose: 0.1 mg/kg/injection, schedule: Q01DX009 (ip), vehicle: water 106 % of control | dose: 0.2 mg/kg/injection, schedule: Q01DX009 (ip), vehicle: water 120 % of control | dose: 0.3 mg/kg/injection, schedule: Q04DX003 (ip), vehicle: water 124 % of control | dose: 0.4 mg/kg/injection, schedule: Q01DX009 (ip), vehicle: water 93 % of control | dose: 1.2 mg/kg/injection, schedule: Q04DX003 (ip), vehicle: water 110 % of control | dose: 1.8 mg/kg/injection, schedule: Q04DX003 (ip), vehicle: water 91 % of control

CC(CCC(CCCCC(CCC(C)CC(C)(C)C)CCC(C)CC(C)(C)C)CCC(C)CC(C)(C)C)CC(C)(C)C (stereo unspecified)
inactive: dose: 75.0 mg/kg/injection, schedule: Q01DX001 (ip), vehicle: saline with Tween-80 103 % of control | dose: 150.0 mg/kg/injection, schedule: Q01DX001 (ip), vehicle: saline with Tween-80 98 % of control | dose: 300.0 mg/kg/injection, schedule: Q01DX001 (ip), vehicle: saline with Tween-80 98 % of control

CCNC(=S)NCCO
inactive: dose: 100.0 mg/kg/injection, schedule: Q04DX003 (ip), vehicle: saline sonified 97 % of control | dose: 200.0 mg/kg/injection, schedule: Q04DX003 (ip), vehicle: saline sonified 90 % of control | dose: 400.0 mg/kg/injection, schedule: Q04DX003 (ip), vehicle: saline sonified 97 % of control
